This is an account of results in PubChem BioAssay (NCI).

SMILES strings stand for the structures.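 Where inhibition never reached the appropriate level, the endpoint shown equals the highest concentration tested. Otherwise, values were interpolated linearly from a five-concentration, 48-hour dose response in 96-well plates. GI50 marks 50% less growth. TGI denotes the concentration required for complete inhibition of growth.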 Where only a bound is given, the exact number is not on record here.

Test systems include 786-0 renal; A549 NSCLC; HL-60(TB) leukemia; HT29 colon; KM12 colon; NCI-H23 lung; SF-295 CNS; SNB-19 CNS; SNB-75 CNS; SW-620 colon.
Experiment in all cases: NCI anticancer screen, dose series, 48 h

Turning to `COc1ccc2c3c([nH]c2c1[N+](=O)[O-])C(C)N(C)CC3` (stereo not given), the TGI is > 100 µM with 786-0 renal; > 100 µM in the assay with A549 NSCLC; > 100 µM in the assay on HL-60(TB) leukemia; 42.6 µM in the assay on HT29 colon; > 100 µM in the assay with KM12 colon; > 100 µM in the assay with NCI-H23 lung. Moreover, the TGI in the assay with SF-295 CNS, in the assay on SNB-19 CNS, with SNB-75 CNS and in the assay with SW-620 colon was > 100 µM each time.
Consider `C/C(=N\Nc1ccc(Cl)cn1)c1ccc2ccccc2n1`, for which the GI50 was 2.44 µM in the assay with 786-0 renal; 4.22 µM with A549 NSCLC; 2.18 µM with HL-60(TB) leukemia; 5.05 µM in the assay on HT29 colon; 3.15 µM in the assay on KM12 colon; 3.55 µM with NCI-H23 lung. Besides, the GI50 with SF-295 CNS was 3.06 µM; in the assay with SNB-19 CNS it was 3.3 µM; in the assay on SNB-75 CNS, 3.3 µM; in the assay on SW-620 colon, 3.83 µM. Moreover, the TGI is 7.55 µM in the assay on 786-0 renal; > 100 µM with A549 NSCLC; 8.95 µM in the assay with HL-60(TB) leukemia; > 100 µM with HT29 colon; > 100 µM in the assay with KM12 colon; > 100 µM in the assay on NCI-H23 lung. In addition, the TGI in the assay with SF-295 CNS, in the assay on SNB-19 CNS, in the assay on SNB-75 CNS and in the assay on SW-620 colon was > 100 µM each time.
Consider `Cc1cc(NS(=O)(=O)c2ccc(Nc3c4ccccc4nc4c(C(=O)N5CCN(CCO)CC5)cccc34)cc2)no1`, for which the TGI in the assay on 786-0 renal, in the assay with A549 NSCLC, in the assay on HL-60(TB) leukemia, in the assay with HT29 colon, with KM12 colon and with NCI-H23 lung was > 100 µM in each case. Moreover, the TGI in the assay on SF-295 CNS, in the assay with SNB-19 CNS, in the assay on SNB-75 CNS and with SW-620 colon was > 100 µM throughout.
Consider `COc1ccc(-c2cc(-c3cc(C)cc(Br)c3O)no2)cc1`, for which the TGI was 31.6 µM with 786-0 renal; 57 µM in the assay on A549 NSCLC; > 100 µM in the assay on HL-60(TB) leukemia; > 100 µM with HT29 colon; > 100 µM in the assay with KM12 colon; 99.7 µM in the assay with NCI-H23 lung. Further, the TGI in the assay with SF-295 CNS was 14.4 µM; with SNB-19 CNS, 58 µM; in the assay on SNB-75 CNS it was 8.73 µM; in the assay on SW-620 colon, > 100 µM.
Regarding `O=c1cc(NCC(O)CN2CCCC2)n(Cc2ccccc2)c(=O)n1Cc1ccccc1` (stereo not given), the GI50 in the assay on 786-0 renal was 32.3 µM; in the assay on A549 NSCLC, > 100 µM; in the assay on HL-60(TB) leukemia, 7.81 µM; in the assay on HT29 colon it was 20 µM; in the assay on KM12 colon, 18.5 µM; in the assay on NCI-H23 lung it was 92 µM. The GI50 with SF-295 CNS was 46.6 µM; in the assay with SNB-19 CNS it was > 100 µM; in the assay with SNB-75 CNS, 25.3 µM; in the assay with SW-620 colon, 41.1 µM. In addition, the TGI was > 100 µM with 786-0 renal; > 100 µM with A549 NSCLC; 30.3 µM in the assay with HL-60(TB) leukemia; 49 µM with HT29 colon; 36.5 µM in the assay on KM12 colon; > 100 µM in the assay with NCI-H23 lung. The TGI in the assay on SF-295 CNS is > 100 µM; in the assay on SNB-19 CNS, > 100 µM; in the assay with SNB-75 CNS, 81.5 µM; in the assay with SW-620 colon, > 100 µM.
With `CCc1nc2cc(F)c(/C=C/C(=O)NO)cc2c(=O)n1CCc1ccccc1`, the GI50 in the assay with 786-0 renal was 0.309 µM; in the assay on A549 NSCLC it was 0.335 µM; with HL-60(TB) leukemia it was 0.415 µM; with HT29 colon it was 0.343 µM; in the assay with KM12 colon, 0.412 µM; with NCI-H23 lung, 0.375 µM. Further, the GI50 is 0.234 µM in the assay on SF-295 CNS, 0.46 µM in the assay on SNB-19 CNS, 0.356 µM with SNB-75 CNS and 0.336 µM in the assay with SW-620 colon. The TGI in the assay with 786-0 renal was 2.03 µM; with A549 NSCLC, 2.67 µM; in the assay with HL-60(TB) leukemia it was > 100 µM; in the assay with HT29 colon, 12.1 µM; in the assay with KM12 colon, 15 µM; with NCI-H23 lung it was 7.07 µM. Also, the TGI amounted to 0.617 µM in the assay with SF-295 CNS, 17 µM in the assay on SNB-19 CNS, 13.8 µM with SNB-75 CNS and 12.1 µM with SW-620 colon.
As for `CCCC1=C(CC)C(C(=O)Nc2c(C)cccc2C)=NC(S)N1` (stereo not given), the TGI in the assay on 786-0 renal, in the assay with A549 NSCLC, in the assay on HL-60(TB) leukemia, with HT29 colon, in the assay with KM12 colon and in the assay with NCI-H23 lung was > 100 µM in each case. Further, the TGI in the assay on SF-295 CNS, in the assay on SNB-19 CNS, in the assay with SNB-75 CNS and in the assay with SW-620 colon was > 100 µM throughout.
For `c1ccc(C2N3CCCCC3[C@@H]3c4[nH]c5ccccc5c4CCN23)nc1` (stereo not given in full), the TGI in the assay on 786-0 renal, in the assay on A549 NSCLC, in the assay on HL-60(TB) leukemia, with HT29 colon, in the assay on NCI-H23 lung and in the assay on SF-295 CNS was > 100 µM each time. The TGI with SNB-19 CNS, with SNB-75 CNS and with SW-620 colon was > 100 µM each time.
As to `C=C(C)[C@@H]1CC[C@]2(CO)CC[C@]3(C)[C@H](CC[C@@H]4[C@@]5(C)C=C(C#N)C(=O)C(C)(C)[C@@H]5CC[C@]43C)[C@@H]12`, the GI50 is 1.92 µM with 786-0 renal; 1.56 µM with A549 NSCLC; 0.471 µM in the assay on HL-60(TB) leukemia; 1.16 µM with HT29 colon; 2 µM in the assay with NCI-H23 lung; 1.73 µM in the assay on SF-295 CNS. Further, the GI50 with SNB-19 CNS is 1.58 µM; in the assay on SNB-75 CNS it was 1.04 µM; with SW-620 colon, 2.24 µM. Moreover, the TGI in the assay on 786-0 renal came out at 3.98 µM; with A549 NSCLC it was 3.5 µM; in the assay with HL-60(TB) leukemia, 5.5 µM; with HT29 colon, 4.76 µM; in the assay with NCI-H23 lung, 6.05 µM; in the assay with SF-295 CNS, 3.96 µM. Further, the values for the TGI in the assay on SNB-19 CNS, with SNB-75 CNS and with SW-620 colon were 4.08 µM, 3.39 µM and 5.12 µM, respectively.
As to `CCOC(=O)CC(C)C1(C(=O)OCC)CCCCC1=O` (stereo not given), the TGI with 786-0 renal, in the assay with A549 NSCLC, in the assay with HL-60(TB) leukemia, in the assay on HT29 colon, with KM12 colon and in the assay with SF-295 CNS was > 100 µM in each case. Also, the TGI with SNB-19 CNS and with SNB-75 CNS was > 100 µM in each case.
